These results are taken from US8314234B2, “Bicyclic pyrimidine kinase inhibitors” (Janssen Pharmaceutica N.V., priority 2006, dated 2012).

One assay relates to HCT-116 colon carcinoma. The experiment in a line: Cell Proliferation Inhibition Assay (14C-thymidine incorporation), HCT-116. It is filed as cell-based. To be noted: Homo sapiens. The text has this:
(§1) The ability of a test compound to inhibit unregulated cell proliferation may be determined by measuring incorporation of ^14C-labelled thymidine into newly synthesized DNA within cell lines derived from carcinomas originating from several tissues. Accordingly, the anti-proliferative effect of a compound on cells with a variety of phenotypes may be determined.
(§2) Carcinoma cell lines include those such as HeLa cervical adenocarcinoma (American Type Culture Collection (ATCC), Virginia, Cat. #CCL-2), A375 malignant melanoma (ATCC CRL-1619), SK-OV-3 ovarian adenocarcinoma (ATCC HTB-77), HCT-116 colon carcinoma (CCL-247), PC-3 prostate adenocarcinoma (ATCC CRL-1435), and MDA-MB-231 (Xenogen Corp.)
(§3) The carcinoma cells are trypsinized and counted. The cells (3000-8000 count) are added to each well of a 96-well CytoStar tissue culture treated scintillating microplate (Amersham #RPNQ0160) in complete medium (100 μL) and the plate is then incubated in complete medium for 24 hrs at 37° C. in an inert atmosphere containing 5% CO2. Test compound (1 μL) in 100% DMSO is added to the plate test-wells with DMSO only added to control-wells. The plate is incubated in complete medium for a second 24 hr period at 37° C. in an atmosphere containing 5% CO2.
(§4) An aliquot of a solution of Methyl ^14C-thymidine (56 mC/mmol) (NEN #NEC568 or Amersham #CFA532) and complete medium (20 uL to provide 0.2 μCi/well) is then added to each well and the plate is incubated for a third 24 hr period at 37° C. in an atmosphere containing 5% CO2. The plate contents are then discarded, the plate is washed twice with PBS (200 μL) and then PBS (200 μL) is added to each well. The plate is sealed and the degree of methyl ^14C-thymidine incorporation is quantified on a Packard Top Count.

The next assay deals with VEGFR2 (Rattus norvegicus, UniProt O08775). As to the kind of experiment: VEGFR2 screening assay. The class given is biochemical. On the procedure: A kinase reaction mixture was prepared containing 50 mM Tris-HCl pH=8, 10 mM MgCl2, 0.1 mM […], 1 mM DTT, 10 μM ATP, 0.025 μM biotinylated histone-H1 peptide substrate and 0.2 μCuries per well ^33P-γ-ATP (2000-3000 Ci/mmol). 70 μL of the kinase reaction mixture was dispensed into the well of a streptavidin coated FlashPlate™ (Cat. #SMP103, NEN, Boston, Mass.).
VEGFR2, sequence (O08775 786-1343): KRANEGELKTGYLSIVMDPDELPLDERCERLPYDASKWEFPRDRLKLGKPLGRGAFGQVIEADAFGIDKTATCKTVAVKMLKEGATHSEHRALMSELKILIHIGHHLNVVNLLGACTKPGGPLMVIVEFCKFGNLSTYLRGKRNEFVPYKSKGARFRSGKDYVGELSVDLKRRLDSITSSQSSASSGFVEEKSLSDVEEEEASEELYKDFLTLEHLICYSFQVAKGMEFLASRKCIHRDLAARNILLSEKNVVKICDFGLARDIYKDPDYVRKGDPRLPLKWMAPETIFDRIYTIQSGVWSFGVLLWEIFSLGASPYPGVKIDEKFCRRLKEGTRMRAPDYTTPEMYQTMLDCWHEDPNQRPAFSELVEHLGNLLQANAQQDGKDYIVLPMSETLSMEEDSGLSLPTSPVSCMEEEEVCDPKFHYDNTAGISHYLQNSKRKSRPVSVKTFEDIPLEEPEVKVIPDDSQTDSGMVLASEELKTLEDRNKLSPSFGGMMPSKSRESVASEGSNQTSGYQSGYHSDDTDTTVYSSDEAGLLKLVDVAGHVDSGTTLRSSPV
(§5) Test compound stock in 100% DMSO (1 μL) was added to the wells resulting in a final concentration of 1% DMSO in the reaction with a 100 μL final reaction volume. Each enzyme was diluted in 50 mM Tris-HCl pH=8.0, 0.1% BSA and 30 μL was added to each well to initiate the reaction. The reaction was incubated for one hour at 30° C. At the end of the 1 hr incubation, the reaction was terminated by aspirating the mixture from the plate and washing the wells twice with PBS containing 100 mM EDTA. The biotinylated peptide substrate became immobilized on the Flashplate and the incorporation of ^33P-γ-ATP was measured by reading the plate on a scintillation counter. Inhibition of the enzymatic activity was measured by observing a reduced amount of ^33P-γ-ATP incorporated into the immobilized peptide.
The VEGF-R2 enzyme is a fusion protein containing a polyhistidine tag at the N terminus followed by amino acids 786 to 1343 of the rat VEGF-R2 kinase domain (Accession number U93306). The assay used 150 ng of the N-terminal biotinylated peptide biotin-[…]-amide SEQ ID NO: 2) (VEGF-R2) per well.
(§6) A maximum and minimum signal for the assay was determined on each plate. The percent inhibition of a test compound was calculated according to the formula: […]
For a series of test concentrations, the IC50 was derived by graphing percent inhibition against the log of the concentrations tested for a given compound with results shown in Table 2. For those compounds without an IC50, the inhibition values in percent are shown at a test concentration of 2 μM. The term “ND” means “not determined.”

A further assay concerns the target T1, CDK1 (Homo sapiens, UniProt P06493).
T1 construct: purchased New England Biolabs, Beverly, Mass; 6020; host or cells: insect cells
The experiment in a line: CDK-1 screening assay. It is filed as biochemical. On the procedure: (§7) 70 μL of the kinase reaction mixture was dispensed into the well of a streptavidin coated FlashPlate™ (Cat. #SMP103, NEN, Boston, Mass.).
as §5, §6
(§8) The term “ND” means “not determined.”

In assay [1] the test system is HeLa cervical adenocarcinoma. The experiment in a line: Cell Proliferation Inhibition Assay (14C-thymidine incorporation), HeLa. It is filed as cell-based. The conditions noted are these: Homo sapiens.
From the text: as §1, §2, §3, §4
In general terms: Incorporation of labelled thymidine or its analogues reports DNA synthesis.

Another assay concerns A375 malignant melanoma. As to the kind of experiment: Cell Proliferation Inhibition Assay (14C-thymidine incorporation), A375. The class given is cell-based. To be noted: Homo sapiens, A-375.
From the text: as §1, §2, §3, §4

Another assay concerns the target T2, CDK2 (Homo sapiens, UniProt P24941).
T2 construct: purchased Upstate Biotech, Lake Placid, N.Y
As to the kind of experiment: CDK-2 screening assay. It is filed as biochemical. On the procedure:
as §7, §5
The CDK2 enzyme in complex with cyclin A is commercially available (Upstate Biotech, Lake Placid, N.Y.).
as §6, §8

The next assay has as its target T3, EGFR (Homo sapiens, UniProt P00533).
T3 construct: intracellular portion of EGFR started at nucleotide 2189 (corresponding to amino acid 667) and ended at the termination codon; made in house; host or cells: Sf9 insect cells (baculovirus)
The experiment in a line: EGFR Kinase Assay. The class given is biochemical. To be noted: test concentration of 2 μM. The text has this:
The EGFR kinase used was a fusion of Glutathione-S-Transferase (GST) and a PCR amplified intracellular portion of EGFR (NM_005228). The intracellular portion of EGFR started at nucleotide 2189 (corresponding to amino acid 667) and ended at the termination codon. The portion was PCR amplified with primers that added the lambda attB sequences to each end, recombined into an entry vector, then into a GST destination vector (as described in Gateway Technologies Manual by Invitrogen Corporation, Carlsbad, Calif.).
The destination vector was recombined in the DH10BAC strain of bacteria to produce a bacmid. The bacmid was transfected into Sf9 cells and the supernatant containing the baculovirus was collected. The GSTEGFR protein was purified using large cultures of Sf9 cells infected with stock virus. After an appropriate period of time, the cells were collected and lysed. The GSTEGFR was then purified from the lysate on Glutathione-Sepharose columns (as described by Amersham Biosciences, Buckinghamshire, United Kingdom).
The EGFR substrate was prepared by biotinylating polyGluTyr (128 mg) (Sigma, St. Louis, Mo.) in a 1×PBS buffer incubated together with a 12-fold molar excess of Sulfo-NHS-LC-Biotin on ice for at least 2 hrs. The free biotin was separated from the biotinylated polyGluTyr on a gel filtration column.
A mixture of a 10× kinase buffer (500 mM Tris at pH 8.0, 100 mM Magnesium Chloride and 1 mM Sodium Vanadate), DTT (1 mM final from 500 mM stock), ATP (5 μM final from 10 mM stock), biotinylated polyGluTyr (10 μg/μL stock), γ-^33P ATP (10 μCi/μL stock) and water was added to each well (90 μL/well) of a Streptavidin Flashplate (Perkin Elmer, Wellesley, Mass.).
Test compound in 100% DMSO (2 μL) was added to the appropriate wells. Diluted GSTEGFR (1:300 dilution in 50 mM Tris at pH 8.0 and 0.1% bovine serum albumin) (10 μL) was added to the wells to initiate the reactions.
The plates were incubated at 30° C. for 1 hr with shaking. The reacted contents were removed and the plates were sequentially washed three times with a 1×PBS stop buffer (300 μL without Magnesium and Calcium) and 100 mM EDTA. After the final wash, the same stop buffer (200 μL) was added to the wells. The plates were then sealed and read on the TopCount scintillation counter.
Test compounds were assayed in triplicate at 16 concentrations at half-log dilutions starting at 200 uM. A maximum and minimum signal for the assay was determined on each plate. The percent inhibition of a test compound was calculated according to the formula
For a series of test concentrations, the IC50 was derived by graphing percent inhibition against the log of the concentrations tested for a given compound. The percent inhibition results are shown in Table 1 at a test concentration of 2 μM. For those compounds with an IC50, the IC50 value is shown in parentheses.

T1 sequence (P06493 whole entry): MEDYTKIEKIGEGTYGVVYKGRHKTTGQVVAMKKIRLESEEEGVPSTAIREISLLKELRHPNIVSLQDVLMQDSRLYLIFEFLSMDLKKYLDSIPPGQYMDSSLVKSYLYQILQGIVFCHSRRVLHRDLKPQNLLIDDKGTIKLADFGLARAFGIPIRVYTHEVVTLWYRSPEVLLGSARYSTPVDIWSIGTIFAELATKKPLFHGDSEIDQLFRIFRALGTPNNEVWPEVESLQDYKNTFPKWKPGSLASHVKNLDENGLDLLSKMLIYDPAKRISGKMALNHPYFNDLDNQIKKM
T1 sequence (P14635 whole entry partner): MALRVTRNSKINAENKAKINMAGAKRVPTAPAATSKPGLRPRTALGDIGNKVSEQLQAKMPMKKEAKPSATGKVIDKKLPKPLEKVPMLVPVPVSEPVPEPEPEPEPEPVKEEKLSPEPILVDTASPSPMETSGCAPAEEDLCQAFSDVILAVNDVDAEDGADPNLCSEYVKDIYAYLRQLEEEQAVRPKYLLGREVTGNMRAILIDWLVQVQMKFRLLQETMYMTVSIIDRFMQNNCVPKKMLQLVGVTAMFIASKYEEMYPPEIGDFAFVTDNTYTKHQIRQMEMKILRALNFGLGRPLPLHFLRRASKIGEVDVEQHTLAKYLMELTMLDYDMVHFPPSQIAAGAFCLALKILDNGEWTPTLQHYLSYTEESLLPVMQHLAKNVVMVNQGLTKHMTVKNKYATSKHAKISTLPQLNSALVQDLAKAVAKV

Regarding `O=S(=O)(NCCO)c1ccc(Nc2nc(OCC3CCCCC3)c3cn[nH]c3n2)cc1` [Cpd 26, 4-(4-cyclohexylmethoxy-1H-pyrazolo[3,4-d]pyrimidin-6-ylamino)-N-(2-hydroxy-ethyl)-benzenesulfonamide], the IC50 – broadly, the concentration at which inhibition is half-maximal – in the assay with HCT-116 colon carcinoma stood at 5 µM; on VEGFR2, 2.32 µM; against CDK1, 268 nM; in assay [1], 4.6 µM; in the assay with A375 malignant melanoma, 8.6 µM.

Regarding `c1cc(N2CCNCC2)ccc1Nc1nc(OCC2CCCCC2)c2cn[nH]c2n1` [Cpd 24, (4-cyclohexylmethoxy-1H-pyrazolo[3,4-d]pyrimidin-6-yl)-(4-piperazin-1-yl-phenyl)-amine], the values for the IC50 on VEGFR2, against CDK1 and against CDK2 were above 100 µM, above 100000 nM and above 100000 nM, respectively.

As for `O=S(=O)(NCCO)c1ccc(Nc2nc(Nc3ccc4[nH]ncc4c3)c3cn[nH]c3n2)cc1` [Cpd 11, N-(2-hydroxy-ethyl)-4-[4-(1H-indazol-5-ylamino)-1H-pyrazolo[3,4-d]pyrimidin-6-ylamino]-benzenesulfonamide], the IC50 in the assay with HCT-116 colon carcinoma was found to be 100 µM; against VEGFR2 it was 1 µM; on CDK1, 102 nM; in assay [1] it was 100 µM; on CDK2 it was 139 nM; in the assay on A375 malignant melanoma, 100 µM.

Take `NS(=O)(=O)c1ccc(Nc2nc(NCc3ccccc3)c3cn[nH]c3n2)cc1` [Cpd 2, 4-(4-benzylamino-1H-pyrazolo[3,4-d]pyrimidin-6-ylamino)-benzenesulfonamide]: the IC50 worked out at 20 µM against VEGFR2, 7160 nM on CDK1 and 1600 nM against CDK2.

As for “4-[6-(1H-indazol-5-ylamino)-1H-pyrazolo[3,4-d]pyrimidin-4-ylamino]-benzenesulfonamide [Cpd 4]”, the IC50 against VEGFR2 stood at 1.15 µM; against CDK1, 527 nM; against CDK2, 150 nM. Further, on EGFR, the “EGFR Inhibition (%)” value came out at 65%.

Consider `CC(C)C(CO)Nc1nc(Nc2ccc(S(=O)(=O)NCCO)cc2)nc2[nH]ncc12` (stereo not drawn) [Cpd 14, N-(2-hydroxy-ethyl)-4-[4-(1-hydroxymethyl-2-methyl-propylamino)-1H-pyrazolo[3,4-d]pyrimidin-6-ylamino]-benzenesulfonamide], for which the IC50 was 15 µM in the assay with HCT-116 colon carcinoma; 75 µM on VEGFR2; 12000 nM against CDK1; 100 µM in assay [1]; 3290 nM on CDK2; 100 µM in the assay with A375 malignant melanoma.

As for `O=S(=O)(NCCO)c1ccc(Nc2nc(Nc3ccc4[nH]ncc4c3)c3cnoc3n2)cc1` [Cpd 15, N-(2-hydroxy-ethyl)-4-[4-(1H-indazol-5-ylamino)-isoxazolo[5,4-d]pyrimidin-6-ylamino]-benzenesulfonamide], the IC50 stood at 15 µM in the assay on HCT-116 colon carcinoma; 1 µM against VEGFR2; 1000 nM at CDK1; 100 µM in assay [1]; 180 nM against CDK2; 100 µM in the assay with A375 malignant melanoma.

As for `NS(=O)(=O)c1ccc(Nc2nc(OCC3CCCCC3)c3cn[nH]c3n2)cc1` [Cpd 23, 4-(4-cyclohexylmethoxy-1H-pyrazolo[3,4-d]pyrimidin-6-ylamino)-benzenesulfonamide], the IC50 in the assay on HCT-116 colon carcinoma was 16.6 µM; against VEGFR2 it was above 10 µM; in assay [1], 18.3 µM; with A375 malignant melanoma it was 11 µM.

Consider `c1nc2ccc(Nc3nc(Nc4ccc5ncsc5c4)c4cn[nH]c4n3)cc2s1` [Cpd 16, N^4,N^6-bis-benzothiazol-6-yl-1H-pyrazolo[3,4-d]pyrimidine-4,6-diamine], for which the half-maximal inhibitory concentration (IC50) with HCT-116 colon carcinoma is 8.6 µM; on VEGFR2, 0.989 µM; against CDK1 it was 5000 nM; in assay [1] it was 13.3 µM; against CDK2, 1000 nM; with A375 malignant melanoma, 8.2 µM.

In the case of `NS(=O)(=O)c1ccc(Nc2nc(Nc3ccc(S(N)(=O)=O)cc3)c3cn[nH]c3n2)cc1` [Cpd 1, N^4,N^6-bis-[4-(amino-sulfonyl)-phenyl]-1H-pyrazolo[3,4-d]pyrimidine-4,6-diamine], the half-maximal inhibitory concentration (IC50) in the assay with HCT-116 colon carcinoma was 4.9 µM; on VEGFR2 it was 5 µM; against CDK1, 132 nM; in assay [1], 100 µM; against CDK2, 21 nM; in the assay on A375 malignant melanoma it was 100 µM.

For `O=S(=O)(NCCN1CCOCC1)c1ccc(Nc2nc(OCC3CCCCC3)c3cn[nH]c3n2)cc1` [Cpd 27, 4-(4-cyclohexylmethoxy-1H-pyrazolo[3,4-d]pyrimidin-6-ylamino)-N-(2-morpholin-4-yl-ethyl)-benzenesulfonamide], the 50% inhibitory concentration (IC50) was 11.2 µM in the assay on HCT-116 colon carcinoma; 4.47 µM against VEGFR2; 830 nM on CDK1; 19.4 µM in assay [1]; 7.5 µM in the assay on A375 malignant melanoma.

As for `c1ccc(Nc2nc(OCC3CCCCC3)c3cn[nH]c3n2)cc1` [Cpd 25, (4-cyclohexylmethoxy-1H-pyrazolo[3,4-d]pyrimidin-6-yl)-phenyl-amine], the IC50 at VEGFR2 is above 10 µM; on CDK1, above 100000 nM; against CDK2 it was above 10000 nM.
